Laboratory results taken from patent publication US20240270821A1, “GIP/GLP1/GCG TRI-RECEPTOR AGONISTS AND USES THEREOF” (priority 2023, published 2024).
Where two headings read alike, the source gives them in different places. Starred links: 1 amine or outer side, 2 acyl side, 3 side chain; linkers in the order of their positions; H or OH if unused. Non-standard residues stand in square brackets, D forms with d. Residues, ends and D or L forms follow the SMILES beside them. Groups on a side chain read outwards from the residue. No end group written: not given here. *: point of attachment. C20 diacid = O=C(O)CCCCCCCCCCCCCCCCCCC(=O)*; C18 diacid = O=C(O)CCCCCCCCCCCCCCCCC(=O)*; αMePhe(2-F) = C[C@](N)(Cc1ccccc1F)C(=O)O; γGlu = O=C(O)[C@H](CCC(=O)[*:2])N[*:1]; αMe4Pal = C[C@](N)(Cc1ccncc1)C(=O)O; αMeY = C[C@](N)(Cc1ccc(O)cc1)C(=O)O; αMeF = C[C@](N)(Cc1ccccc1)C(=O)O; 4Pal = N[C@@H](Cc1ccncc1)C(=O)O; αMeL = CC(C)C[C@](C)(N)C(=O)O; αMeS = C[C@](N)(CO)C(=O)O; Orn = NCCC[C@H](N)C(=O)O; AEEA = NCCOCCOCC(=O)O; Aib = CC(C)(N)C(=O)O

Legend:
Type in all cases: cell-based
hGcgR = hGcgR (Homo sapiens, UniProt P47871); experiment: Functional cAMP activation in the presence of 0.1% casein (no HSA); conditions: read-out: Relative cAMP EC50, hGcgR;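 also: intracellular cAMP rise after 30 min at 37 °C, read by HTRF against a cAMP standard curve, scaled from buffer only (0%) to maximal control ligand response (100%)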
Chain of hGcgR (P47871 26-477): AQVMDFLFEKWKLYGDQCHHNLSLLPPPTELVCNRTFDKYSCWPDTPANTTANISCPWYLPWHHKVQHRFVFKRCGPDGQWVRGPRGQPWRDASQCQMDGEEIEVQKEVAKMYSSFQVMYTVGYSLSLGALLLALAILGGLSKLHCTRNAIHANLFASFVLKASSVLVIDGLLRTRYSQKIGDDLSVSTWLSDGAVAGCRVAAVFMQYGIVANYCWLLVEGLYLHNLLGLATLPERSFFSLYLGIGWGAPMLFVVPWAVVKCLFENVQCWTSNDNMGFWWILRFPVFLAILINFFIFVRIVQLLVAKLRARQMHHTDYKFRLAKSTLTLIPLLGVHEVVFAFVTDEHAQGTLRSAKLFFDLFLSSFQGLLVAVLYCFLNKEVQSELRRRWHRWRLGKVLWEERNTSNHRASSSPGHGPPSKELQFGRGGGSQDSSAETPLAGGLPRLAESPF

hGLP-1R [1] = molecular target: T1, hGLP-1R (Homo sapiens, UniProt P43220); experiment: as above; conditions: read-out: Relative cAMP EC50, hGLP-1R;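 also: intracellular cAMP rise after 30 min at 37 °C read by HTRF, normalized between buffer only (0%) and maximal control ligand (100%), four-parameter variable-slope fit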
T1 sequence (P43220 24-463): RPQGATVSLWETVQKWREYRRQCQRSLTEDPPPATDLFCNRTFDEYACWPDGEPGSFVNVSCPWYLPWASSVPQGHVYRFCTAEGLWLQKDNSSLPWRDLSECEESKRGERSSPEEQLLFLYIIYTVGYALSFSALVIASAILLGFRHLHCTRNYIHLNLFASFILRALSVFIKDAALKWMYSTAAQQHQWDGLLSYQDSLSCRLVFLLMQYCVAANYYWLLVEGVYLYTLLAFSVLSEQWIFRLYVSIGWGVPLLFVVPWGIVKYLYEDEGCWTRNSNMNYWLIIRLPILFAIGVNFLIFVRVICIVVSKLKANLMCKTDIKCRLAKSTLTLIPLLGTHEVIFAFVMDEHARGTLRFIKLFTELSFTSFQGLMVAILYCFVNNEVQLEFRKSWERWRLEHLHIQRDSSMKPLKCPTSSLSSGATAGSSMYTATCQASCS

human GcgR = human GcgR (Homo sapiens, UniProt P47871); experiment: Functional cAMP activity in the presence of 1% HSA; conditions: read-out: cAMP Rel EC50, hGcgR
Chain of human GcgR (P47871 26-477): as the sequence (P47871 26-477) above

hGIPR [2] = molecular target: T2, hGIPR (Homo sapiens, UniProt P48546); experiment: Functional cAMP activation in the presence of 0.1% casein (no HSA); conditions: read-out: Relative cAMP EC50, hGIPR;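 also: intracellular cAMP rise after 30 min at 37 °C read by HTRF against a standard curve, scaled between buffer alone (0%) and top control ligand concentration (100%), four-parameter fit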
T2 sequence (P48546 22-466): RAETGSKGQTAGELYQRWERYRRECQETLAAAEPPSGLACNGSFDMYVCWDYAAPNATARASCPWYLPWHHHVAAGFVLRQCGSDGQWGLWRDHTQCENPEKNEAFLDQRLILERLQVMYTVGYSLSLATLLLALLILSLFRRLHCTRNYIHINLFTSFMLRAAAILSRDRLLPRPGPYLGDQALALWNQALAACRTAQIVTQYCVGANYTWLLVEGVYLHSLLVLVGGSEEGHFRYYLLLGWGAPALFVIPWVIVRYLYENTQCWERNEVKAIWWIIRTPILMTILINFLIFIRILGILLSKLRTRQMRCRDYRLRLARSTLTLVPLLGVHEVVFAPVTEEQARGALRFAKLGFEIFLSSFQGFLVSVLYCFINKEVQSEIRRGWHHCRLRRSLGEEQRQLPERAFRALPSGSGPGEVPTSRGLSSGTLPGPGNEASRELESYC

hGLP-1R [3] = molecular target: T1, hGLP-1R; experiment: Functional cAMP activity in the presence of 1% HSA; conditions: read-out: cAMP Rel EC50, hGLP-1R
hGIPR [4] = molecular target: T2, hGIPR; experiment: Functional cAMP activity in the presence of 1% HSA; conditions: read-out: cAMP Rel EC50, hGIPR
[5] = in the presence of 0.1% casein (no HSA), geometric mean
[6] = 0.1% casein, no HSA, geometric mean

Compound | EC50 (hGcgR; [5]) [nM] | EC50 (hGLP-1R [1]; [5]) [nM] | EC50 (human GcgR) [nM] | EC50 (hGIPR [2]; [5]) [nM] | EC50 (hGLP-1R [3]) [nM] | EC50 (hGIPR [4]) [nM] | EC50 (hGcgR; [6]) [nM] | EC50 (hGLP-1R [1]; [6]) [nM] | EC50 (hGIPR [2]; [6]) [nM] | EC50 (hGcgR) [nM] | EC50 (hGLP-1R [1]) [nM] | EC50 (hGIPR [2]) [nM]
H-Y[Aib]QGTFTSD[4Pal]S[Orn][αMeL]LDKK([AEEA-γGlu-γGlu-C18 diacid])AQ[αMe4Pal]AFIE[αMe4Pal]LIE[Aib]GPSSGEPPPSGS-NH2 [Example 987] | 3.62 | 6.33 | 267 | 0.194 | 515 | 11.7 |  |  |  |  |  | 
H-Y[Aib]Q[dA]T[αMePhe(2-F)]TSD[4Pal]SI[αMeL]LD[Orn]K([AEEA-γGlu-C18 diacid])AQ[αMe4Pal]EFI[dE][αMeY]LIEGGPSSGAPPPSGS-NH2 [Example 1206] |  |  | 251 |  | 44.1 | 7.04 | 1.78 | 0.352 | 0.0671 |  |  | 
H-Y[Aib]QGT[αMePhe(2-F)]TSDYSKLLDEIAQK([AEEA-γGlu-C20 diacid])AFIEYLLEGGPSSGEPPPSEG-NH2 [Example 303] | 6.1 | 1.13 | 9950 | 0.116 | 257 | 44.7 |  |  |  |  |  | 
H-Y[Aib]QGT[αMePhe(2-F)]TSDYSILLDKQAAK([AEEA-AEEA-γGlu-C20 diacid])EFIEYLIEGGPSSGEPPPSEG-NH2 [Example 348] | 3.9 | 0.346 | 1250 | 0.127 | 136 | 36.4 |  |  |  |  |  | 
H-Y[Aib]QGTFTSD[4Pal]SQ[αMeL]LD[Orn]K([γGlu-γGlu-C18 diacid])AQ[αMe4Pal]QFIE[αMeY]LIEGGPSSGAPPPSGSEE-NH2 [Example 1046] | 10 | 1.94 | 1680 | 0.352 | 528 | 85 |  |  |  |  |  | 
H-Y[Aib]QGTFTSD[4Pal]SQ[αMeL]LDKK([γGlu-γGlu-C18 diacid])AQ[αMe4Pal]AFIEYLIAGGPSSGAPPPEGS-NH2 [Example 969] | 5.48 | 1.21 | 660 | 0.142 | 113 | 12.6 |  |  |  |  |  | 
H-Y[Aib]QGTFTSD[4Pal]SQ[αMeL]LDKK([AEEA-γGlu-C18 diacid])AQ[αMe4Pal]AFIE[αMe4Pal]LIEGGPSSGAPPPSGS-NH2 [Example 948] | 2.89 | 2.67 | 537 | 0.17 | 304 | 22.9 |  |  |  |  |  | 
CC[C@H](C)[C@H](NC(=O)[C@H](CO)NC(=O)[C@H](Cc1ccc(O)cc1)NC(=O)[C@H](CC(=O)O)NC(=O)[C@H](CO)NC(=O)[C@@H](NC(=O)[C@](C)(Cc1ccccc1F)NC(=O)[C@@H](NC(=O)CNC(=O)[C@H](CCC(N)=O)NC(=O)C(C)(C)NC(=O)[C@@H](N)Cc1ccc(O)cc1)[C@@H](C)O)[C@@H](C)O)C(=O)N[C@@H](CC(C)C)C(=O)N[C@@H](CC(C)C)C(=O)N[C@@H](CC(=O)O)C(=O)N[C@@H](CCCN)C(=O)N[C@@H](CCCCNC(=O)COCCOCCNC(=O)COCCOCCNC(=O)CC[C@H](NC(=O)CCCCCCCCCCCCCCCCC(=O)O)C(=O)O)C(=O)N[C@@H](C)C(=O)N[C@@H](CCC(N)=O)C(=O)NC(C)(C)C(=O)N[C@@H](C)C(=O)N[C@@H](Cc1ccccc1)C(=O)N[C@H](C(=O)N[C@H](CCC(=O)O)C(=O)N[C@@H](Cc1ccc(O)cc1)C(=O)N[C@@H](CC(C)C)C(=O)N[C@@H](CC(C)C)C(=O)N[C@@H](CCC(=O)O)C(=O)NCC(=O)NCC(=O)N1CCC[C@H]1C(=O)N[C@@H](CO)C(=O)N[C@@H](CO)C(=O)NCC(=O)N[C@@H](C)C(=O)N1CCC[C@H]1C(=O)N1CCC[C@H]1C(=O)N1CCC[C@H]1C(=O)N[C@@H](CO)C(N)=O)[C@@H](C)CC [Example 427] |  |  | 1440 |  | 42.9 | 4.25 |  |  |  | 3.81 | 0.282 | 0.0121
Y[Aib]QGTFTSD[4Pal]SQ[αMeL]LDKK([AEEA-γGlu-C18 diacid])AQ[Aib]AFIEYLLE[dA]GPSSGAPPPSGS-NH2 [Example 820] | 6.83 | 2.78 | 1270 | 0.121 | 299 | 17.5 |  |  |  |  |  | 
H-Y[Aib]QGTFTSD[4Pal]SQ[αMeL]LDKK([γGlu-γGlu-C18 diacid])AQ[αMe4Pal]AFIEYLIE[Aib]GPSSGAPPPEGE-NH2 [Example 884] | 3.82 | 4.17 | 613 | 0.155 | 298 | 23.5 |  |  |  |  |  | 
H-Y[Aib]QGTFTSD[4Pal]SK[αMeL]LDKK([γGlu-γGlu-C18 diacid])AQ[Aib]AFIEYLIE[Aib]GPSSGAPPPSGSEEE-NH2 [Example 906] | 14.7 | 2.48 | 1170 | 0.212 | 236 | 15.4 |  |  |  |  |  | 
H-Y[Aib]QGT[αMeF]TSD[4Pal][αMeS]I[αMeL]LD[Orn]K([γGlu-γGlu-C18 diacid])AQ[αMe4Pal]EFI[dE][αMeY]LIEGGPSSGEPPPSGE-NH2 [Example 1171] | 2.19 | 0.529 | 233 | 0.00953 | 52.9 | 0.718 |  |  |  |  |  | 
H-Y[Aib]QGTFTSD[4Pal]S[Orn][αMeL]LD[Orn]K([γGlu-γGlu-C18 diacid])AQ[αMe4Pal]AFIEYLIAGGPSSGEPPPSGE-NH2 [Example 983] | 4.75 | 2.35 | 576 | 0.289 | 207 | 19.4 |  |  |  |  |  | 
CC[C@H](C)[C@H](NC(=O)[C@H](Cc1ccccc1)NC(=O)[C@H](C)NC(=O)C(C)(C)NC(=O)[C@H](CCC(N)=O)NC(=O)[C@H](C)NC(=O)[C@H](CCCCNC(=O)COCCOCCNC(=O)CC[C@H](NC(=O)CCCCCCCCCCCCCCCCC(=O)O)C(=O)O)NC(=O)[C@H](CCCCN)NC(=O)[C@H](CC(=O)O)NC(=O)[C@H](CC(C)C)NC(=O)[C@](C)(CC(C)C)NC(=O)[C@@H](NC(=O)[C@H](CO)NC(=O)[C@H](Cc1ccc(O)cc1)NC(=O)[C@H](CC(=O)O)NC(=O)[C@H](CO)NC(=O)[C@@H](NC(=O)[C@](C)(Cc1ccccc1)NC(=O)[C@@H](NC(=O)CNC(=O)[C@H](CCC(N)=O)NC(=O)C(C)(C)NC(=O)[C@@H](N)Cc1ccc(O)cc1)[C@@H](C)O)[C@@H](C)O)[C@@H](C)CC)C(=O)N[C@@H](CCC(=O)O)C(=O)N[C@@H](Cc1ccc(O)cc1)C(=O)N[C@@H](CC(C)C)C(=O)N[C@@H](CCC(=O)O)C(=O)N[C@@H](CCC(=O)O)C(=O)NCC(=O)NCC(=O)N1CCC[C@H]1C(=O)N[C@@H](CO)C(=O)N[C@@H](CO)C(=O)NCC(=O)N[C@@H](C)C(=O)N1CCC[C@H]1C(=O)N1CCC[C@H]1C(=O)N1CCC[C@H]1C(=O)N[C@@H](CCC(=O)O)C(N)=O [Example 396] (H-Y[Aib]QGT[αMeF]TSDYSI[αMeL]LDKK([AEEA-γGlu-C18 diacid])AQ[Aib]AFIEYLEEGGPSSGAPPPE-NH2) |  |  | 468 |  | 38.2 | 9.5 |  |  |  | 4.99 | 0.293 | 0.024
H-Y[Aib]QGTFTSDFSK[αMeL]LDKK([AEEA-γGlu-C18 diacid])AQ[Aib]AFIE[αMe4Pal]LIE[Aib]GPSSGAPPPSGS-NH2 [Example 912] | 3.76 | 0.414 | 955 | 0.0387 | 59.6 | 6.15 |  |  |  |  |  | 
H-Y[Aib]QGTFTSD[4Pal]SK[αMeL]LDKK([γGlu-γGlu-C18 diacid])AQ[Aib]AFIEYLIE[Aib]GPSSGAPPPSGS-NH2 [Example 907] | 5.79 | 1.15 | 1210 | 0.103 | 123 | 8.86 |  |  |  |  |  | 
